The test system of experiment [1] is Tyk2-pSTAT4 (IL-12 induced pSTAT4). Briefly: IL-12 induced pSTAT4 in human PBMC. It counts as cell-based. Particulars: 1.7 ng/mL IL-12, 30 minutes. The method, then: (§1) Human PBMC are isolated from buffy coat and are stored frozen for assays as needed. Cells for assay are thawed and resuspended in complete media containing serum, then cells are diluted to 1.67 E6 cells/ml so that 120 ul per well is 200,000 cells. 15 ul of compound or DMSO is added to the well at the desired concentrations and incubated at 1 hr at 37 C. 15 ul of stimulus (final concentration of 1.7 ng/mL IL-12) is added for 30 minutes prior to pSTAT4 and total STAT4 analysis using cell lysates prepared and analyzed by MSD reagents as per manufacturer protocol. The final DMSO concentration of compound in the assay is 0.1%.

For experiment [2], the system named is JAK2-pSTAT5 (GM-CSF induced pSTAT5). Kind of experiment: GM-CSF induced pSTAT5 in human PBMC. It is filed as cell-based. Particulars: 5 ng/mL GM-CSF. The method, then:
as §1
Cells are prepared for analysis as in the above procedure and 15 ul of GM-CSF (final concentration 5 ng/mL) is added for 20 minutes prior to pSTAT5 and total STAT5 analysis using cell lysates prepared and analyzed by MSD reagents as per manufacturer protocol. The final DMSO concentration of compound in the assay is 0.1%.

A further experiment concerns the target TYK2 (Homo sapiens (Human), UniProt P29597). Kind of experiment: Tyk2 radioactive kinase assay. It counts as biochemical. To be noted: ATP 10 μM. The essentials:
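Recombinant human TYK2 (Invitrogen) was mixed with 20 μM peptide substrate in a buffer of 20 mM Hepes pH 7.5, 10 mM MgCl2, 1 mM EGTA, 0.02% Brij35, 0.02 mg/mL BSA, 0.1 mM […], 2 mM DTT and 1% DMSO, and compounds in DMSO were added. Adding ^33P-ATP (10 μM ATP) started the reaction, which ran 120 min at room temperature. Mixtures were then spotted onto P81 ion-exchange paper, washed thoroughly in 0.75% phosphoric acid, and counted for radioactivity.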

For another experiment, the target named is JAK2 (Homo sapiens (Human), UniProt O60674). Kind of experiment: JAK2 radioactive kinase assay. It is filed as biochemical. Particulars: ATP 10 μM. The essentials: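 Radiometric assay in Hepes pH 7.5, MgCl2, EGTA, Brij35, BSA, DTT, 1% DMSO, with 10 μM [33P]ATP, 120 min at room temp; P81 paper capture and counting. […]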
Sequence of JAK2 (O60674 whole entry): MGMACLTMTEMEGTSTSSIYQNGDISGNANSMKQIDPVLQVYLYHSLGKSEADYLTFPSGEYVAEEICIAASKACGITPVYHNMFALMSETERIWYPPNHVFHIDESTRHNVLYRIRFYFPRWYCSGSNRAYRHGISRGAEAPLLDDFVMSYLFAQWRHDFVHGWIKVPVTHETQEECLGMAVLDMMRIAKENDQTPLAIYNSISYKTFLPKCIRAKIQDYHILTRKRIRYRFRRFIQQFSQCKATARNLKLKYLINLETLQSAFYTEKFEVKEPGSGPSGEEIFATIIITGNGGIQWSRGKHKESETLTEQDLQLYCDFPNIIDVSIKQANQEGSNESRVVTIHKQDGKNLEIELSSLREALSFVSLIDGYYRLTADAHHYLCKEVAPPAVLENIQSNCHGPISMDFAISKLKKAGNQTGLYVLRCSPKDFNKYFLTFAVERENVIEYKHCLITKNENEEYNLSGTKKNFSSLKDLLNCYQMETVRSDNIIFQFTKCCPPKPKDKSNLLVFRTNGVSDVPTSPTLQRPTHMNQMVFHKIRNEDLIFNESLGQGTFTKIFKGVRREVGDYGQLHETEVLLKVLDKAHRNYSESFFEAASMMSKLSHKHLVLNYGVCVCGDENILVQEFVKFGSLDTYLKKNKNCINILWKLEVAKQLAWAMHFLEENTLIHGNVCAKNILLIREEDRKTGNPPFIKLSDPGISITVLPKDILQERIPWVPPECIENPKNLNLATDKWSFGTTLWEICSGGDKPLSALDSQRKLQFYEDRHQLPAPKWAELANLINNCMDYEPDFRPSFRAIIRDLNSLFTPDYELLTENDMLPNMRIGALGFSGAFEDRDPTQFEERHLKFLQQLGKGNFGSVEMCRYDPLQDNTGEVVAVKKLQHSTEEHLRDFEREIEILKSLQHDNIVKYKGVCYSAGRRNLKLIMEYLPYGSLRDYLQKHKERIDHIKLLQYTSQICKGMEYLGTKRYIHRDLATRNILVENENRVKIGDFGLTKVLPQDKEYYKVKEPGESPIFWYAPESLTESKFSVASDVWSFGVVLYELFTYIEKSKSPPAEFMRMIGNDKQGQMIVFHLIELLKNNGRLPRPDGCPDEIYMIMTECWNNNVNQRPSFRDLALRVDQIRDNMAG

Each structure is given as a SMILES string. pEC50, pKi: −log10 of the molar value.

Sequence of TYK2 (P29597 whole entry): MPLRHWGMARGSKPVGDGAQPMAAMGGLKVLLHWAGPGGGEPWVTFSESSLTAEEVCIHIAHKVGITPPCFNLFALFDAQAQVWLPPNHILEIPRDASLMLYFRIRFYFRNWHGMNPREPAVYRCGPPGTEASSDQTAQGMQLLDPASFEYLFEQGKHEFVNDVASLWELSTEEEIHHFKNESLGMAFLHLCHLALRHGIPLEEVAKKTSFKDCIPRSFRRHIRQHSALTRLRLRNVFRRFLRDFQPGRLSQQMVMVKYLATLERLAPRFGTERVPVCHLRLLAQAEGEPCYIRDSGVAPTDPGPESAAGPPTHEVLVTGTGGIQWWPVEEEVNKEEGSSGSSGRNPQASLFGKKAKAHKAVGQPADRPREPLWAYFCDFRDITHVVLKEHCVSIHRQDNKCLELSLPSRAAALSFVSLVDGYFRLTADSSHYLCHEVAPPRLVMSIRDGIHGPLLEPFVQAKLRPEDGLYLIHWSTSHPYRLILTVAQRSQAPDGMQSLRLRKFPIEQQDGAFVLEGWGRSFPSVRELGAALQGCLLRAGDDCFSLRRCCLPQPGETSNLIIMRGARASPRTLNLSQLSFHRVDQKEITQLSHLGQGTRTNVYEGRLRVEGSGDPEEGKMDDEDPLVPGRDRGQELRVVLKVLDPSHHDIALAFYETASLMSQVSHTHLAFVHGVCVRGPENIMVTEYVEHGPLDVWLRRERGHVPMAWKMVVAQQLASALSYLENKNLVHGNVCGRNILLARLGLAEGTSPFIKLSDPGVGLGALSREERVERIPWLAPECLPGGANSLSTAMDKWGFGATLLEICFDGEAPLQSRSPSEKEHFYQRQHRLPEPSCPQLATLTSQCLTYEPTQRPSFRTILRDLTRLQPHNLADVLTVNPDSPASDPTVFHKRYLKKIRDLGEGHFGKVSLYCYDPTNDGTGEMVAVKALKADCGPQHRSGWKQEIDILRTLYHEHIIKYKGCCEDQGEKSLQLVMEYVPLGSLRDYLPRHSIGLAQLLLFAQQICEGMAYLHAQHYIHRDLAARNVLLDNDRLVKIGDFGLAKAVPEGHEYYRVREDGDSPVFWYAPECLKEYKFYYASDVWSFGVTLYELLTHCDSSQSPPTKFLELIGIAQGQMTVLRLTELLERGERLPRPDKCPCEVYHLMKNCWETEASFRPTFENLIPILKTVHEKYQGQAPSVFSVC

Usually pEC50 stands for the negative decadic logarithm of the EC50, by convention in mol/L. Lower therefore signals a large EC50. As a reminder, the pKi is the Ki on a negative log10 scale, so that one unit is a factor of ten. In the case of `N#Cc1cccc(F)c1-c1cc(-n2ccc(N3CCOCC3)n2)c2c(n1)CNC2=O` [I-4, 3-fluoro-2-(4-(3-morpholino-1H-pyrazol-1-yl)-5-oxo-6,7-dihydro-5H-pyrrolo[3,4-b]pyridin-2-yl)benzonitrile], the pEC50 in experiment [1] (Homo sapiens, PBMC, 0.5 h) was 5.70 to 7.00; in experiment [2] (Homo sapiens, PBMC, 20 min), under 5.70. In addition, the pKi on TYK2 was 8.00 to 10.00; on JAK2 it was 7.00 to 8.00.

Regarding `CN1CCN(c2ccn(-c3cc(-c4c(F)cccc4C#N)nc4c3C(=O)NC4)n2)CC1` [I-6, 3-fluoro-2-(4-(3-(4-methylpiperazin-1-yl)-1H-pyrazol-1-yl)-5-oxo-6,7-dihydro-5H-pyrrolo[3,4-b]pyridin-2-yl)benzonitrile], the pEC50 in experiment [1] (Homo sapiens, PBMC, 0.5 h) was 5.70 to 7.00; in experiment [2] (Homo sapiens, PBMC, 20 min) it was under 5.70. The negative-log Ki (pKi) on TYK2 and at JAK2 was 8.00 to 10.00 each time.

In the case of `N#Cc1cccc(F)c1-c1cc(-n2ccc(N3CCC(O)CC3)n2)c2c(n1)CNC2=O` [I-56, 3-fluoro-2-(4-(3-(4-hydroxypiperidin-1-yl)-1H-pyrazol-1-yl)-5-oxo-6,7-dihydro-5H-pyrrolo[3,4-b]pyridin-2-yl)benzonitrile], the pEC50 was 5.70 to 7.00 in experiment [1] (Homo sapiens, PBMC, 0.5 h) and 5.70 to 7.00 in experiment [2] (Homo sapiens, PBMC, 20 min). The pKi is 8.00 to 10.00 on TYK2 and 7.00 to 8.00 at JAK2.

Regarding `CC(C)n1ccc(-c2cc(-c3c(F)cccc3C#N)nc3c2C(=O)NC3)n1` [I-57, 3-fluoro-2-(4-(1-isopropyl-1H-pyrazol-3-yl)-5-oxo-6,7-dihydro-5H-pyrrolo[3,4-b]pyridin-2-yl)benzonitrile], the pEC50 in experiment [1] (Homo sapiens, PBMC, 0.5 h) was 5.70 to 7.00; in experiment [2] (Homo sapiens, PBMC, 20 min), 5.70 to 7.00. The pKi is 8.00 to 10.00 at TYK2 and 6.00 to 7.00 on JAK2.

With `N#Cc1cccc(F)c1-c1cc(-n2ccc(N3CCC(N4CCOCC4)CC3)n2)c2c(n1)CNC2=O` [I-59, 3-fluoro-2-(4-(3-(4-morpholinopiperidin-1-yl)-1H-pyrazol-1-yl)-5-oxo-6,7-dihydro-5H-pyrrolo[3,4-b]pyridin-2-yl)benzonitrile], the negative-log EC50 (pEC50) in experiment [1] and in experiment [2] (20 minutes) was 5.70 to 7.00 in each case. In addition, the negative logarithm of the Ki (pKi) at TYK2 and on JAK2 was 8.00 to 10.00 each time.

`CC1(O)CCCN(c2ccn(-c3cc(-c4c(F)cccc4C#N)nc4c3C(=O)NC4)n2)C1` (stereo not shown) [I-62, 3-fluoro-2-(4-(3-(3-hydroxy-3-methylpiperidin-1-yl)-1H-pyrazol-1-yl)-5-oxo-6,7-dihydro-5H-pyrrolo[3,4-b]pyridin-2-yl)benzonitrile]: the pEC50 was 5.70 to 7.00 in experiment [1] (Homo sapiens, PBMC, 0.5 h) and 5.70 to 7.00 in experiment [2] (Homo sapiens, PBMC, 20 min). Also, the pKi at TYK2 was 10.00 to 11.05; on JAK2 it was 7.00 to 8.00.

As to `N#Cc1cccc(F)c1-c1cc(-n2ccc(NCCN3CCOCC3)n2)c2c(n1)CNC2=O` [I-63, 3-fluoro-2-(4-(3-((2-morpholinoethyl)amino)-1H-pyrazol-1-yl)-5-oxo-6,7-dihydro-5H-pyrrolo[3,4-b]pyridin-2-yl)benzonitrile], the pEC50 in experiment [1] (0.5 h) and in experiment [2] (20 min) was 5.70 to 7.00 in each case. Moreover, the pKi at TYK2 is 8.00 to 10.00; on JAK2, 7.00 to 8.00.

`N#Cc1cccc(F)c1-c1cc(-n2ccc(N3CCCC(O)C3)n2)c2c(n1)CNC2=O` (stereo not shown) [I-65, 3-fluoro-2-(4-(3-(3-hydroxypiperidin-1-yl)-1H-pyrazol-1-yl)-5-oxo-6,7-dihydro-5H-pyrrolo[3,4-b]pyridin-2-yl)benzonitrile]: the pEC50 was 7.00 to 7.52 in experiment [1] (Homo sapiens, PBMC, 0.5 h) and 5.70 to 7.00 in experiment [2] (Homo sapiens, PBMC, 20 min). The pKi was 8.00 to 10.00 on TYK2 and 7.00 to 8.00 on JAK2.

`N#Cc1cccc(F)c1-c1cc(-n2ccc(N3CCC[C@@H](O)C3)n2)c2c(n1)CNC2=O` [I-69, (R)-3-fluoro-2-(4-(3-(3-hydroxypiperidin-1-yl)-1H-pyrazol-1-yl)-5-oxo-6,7-dihydro-5H-pyrrolo[3,4-b]pyridin-2-yl)benzonitrile]: the pEC50 in experiment [1] (Homo sapiens, PBMC, 0.5 h) was 5.70 to 7.00; in experiment [2] (Homo sapiens, PBMC, 20 min) it was 5.70 to 7.00. In addition, the pKi at TYK2 is 8.00 to 10.00; on JAK2 it was 7.00 to 8.00.

For the compound `N#Cc1cccc(F)c1-c1cc(-n2ccc(N3CCC[C@H](O)C3)n2)c2c(n1)CNC2=O` [I-70, (S)-3-fluoro-2-(4-(3-(3-hydroxypiperidin-1-yl)-1H-pyrazol-1-yl)-5-oxo-6,7-dihydro-5H-pyrrolo[3,4-b]pyridin-2-yl)benzonitrile], the pEC50 is 5.70 to 7.00 in experiment [1] (Homo sapiens, PBMC, 0.5 h) and 5.70 to 7.00 in experiment [2] (Homo sapiens, PBMC, 20 min). The pKi on TYK2 and on JAK2 was 8.00 to 10.00 each time.

For the compound `C[C@@]1(O)CCCN(c2ccn(-c3cc(-c4c(F)cccc4C#N)nc4c3C(=O)NC4)n2)C1` [I-71, (R)-3-fluoro-2-(4-(3-(3-hydroxy-3-methylpiperidin-1-yl)-1H-pyrazol-1-yl)-5-oxo-6,7-dihydro-5H-pyrrolo[3,4-b]pyridin-2-yl)benzonitrile], the pEC50 in experiment [1] (Homo sapiens, PBMC, 0.5 h) was 7.00 to 7.52; in experiment [2] (Homo sapiens, PBMC, 20 min) it was 5.70 to 7.00. For the same compound, the pKi on TYK2 was 10.00 to 11.05; on JAK2 it was 7.00 to 8.00.

Turning to `C[C@]1(O)CCCN(c2ccn(-c3cc(-c4c(F)cccc4C#N)nc4c3C(=O)NC4)n2)C1` [I-72, (S)-3-fluoro-2-(4-(3-(3-hydroxy-3-methylpiperidin-1-yl)-1H-pyrazol-1-yl)-5-oxo-6,7-dihydro-5H-pyrrolo[3,4-b]pyridin-2-yl)benzonitrile], the pEC50 was 5.70 to 7.00 in experiment [1] (Homo sapiens, PBMC, 0.5 h) and under 5.70 in experiment [2] (Homo sapiens, PBMC, 20 min). The pKi on TYK2 and at JAK2 was 8.00 to 10.00 throughout.

Take `N#Cc1cccc(F)c1-c1cc(-n2ccc(N3CCC(O)C3)n2)c2c(n1)CNC2=O` (stereo not shown) [I-76, 3-fluoro-2-(4-(3-(3-hydroxypyrrolidin-1-yl)-1H-pyrazol-1-yl)-5-oxo-6,7-dihydro-5H-pyrrolo[3,4-b]pyridin-2-yl)benzonitrile]: the pEC50 in experiment [1] (Homo sapiens, PBMC, 0.5 h) is 7.00 to 7.52; in experiment [2] (Homo sapiens, PBMC, 20 min), 5.70 to 7.00. Further, the negative logarithm of the Ki (pKi) was 10.00 to 11.05 on TYK2 and 8.00 to 10.00 at JAK2.

For the compound `N#Cc1cccc(F)c1-c1cc(-n2ccc(N3CC[C@@H](O)C3)n2)c2c(n1)CNC2=O` [I-78, (R)-3-fluoro-2-(4-(3-(3-hydroxypyrrolidin-1-yl)-1H-pyrazol-1-yl)-5-oxo-6,7-dihydro-5H-pyrrolo[3,4-b]pyridin-2-yl)benzonitrile], the pEC50 in experiment [1] (Homo sapiens, PBMC, 0.5 h) is 7.00 to 7.52; in experiment [2] (Homo sapiens, PBMC, 20 min), 5.70 to 7.00. Further, the pKi on TYK2 is 8.00 to 10.00; on JAK2, 7.00 to 8.00.

`N#Cc1cccc(F)c1-c1cc(-n2ccc(N3CC[C@H](O)C3)n2)c2c(n1)CNC2=O` [I-79, (S)-3-fluoro-2-(4-(3-(3-hydroxypyrrolidin-1-yl)-1H-pyrazol-1-yl)-5-oxo-6,7-dihydro-5H-pyrrolo[3,4-b]pyridin-2-yl)benzonitrile]: the pEC50 in experiment [1] (Homo sapiens, PBMC, 0.5 h) is 7.00 to 7.52; in experiment [2] (Homo sapiens, PBMC, 20 min) it was 5.70 to 7.00. Besides, the results for the pKi at TYK2 and at JAK2 were 8.00 to 10.00 and 7.00 to 8.00, respectively.

For `N#Cc1cccc(F)c1-c1cc(-n2ccc(N3CCCOCC3)n2)c2c(n1)CNC2=O` [I-83, 2-(4-(3-(1,4-oxazepan-4-yl)-1H-pyrazol-1-yl)-5-oxo-6,7-dihydro-5H-pyrrolo[3,4-b]pyridin-2-yl)-3-fluorobenzonitrile], the pEC50 in experiment [1] (Homo sapiens, PBMC, 0.5 h) is 5.70 to 7.00; in experiment [2] (Homo sapiens, PBMC, 20 min) it was under 5.70. In addition, the pKi at TYK2 is 8.00 to 10.00; at JAK2 it was 7.00 to 8.00.

On to `CO[C@H]1CN(c2ccn(-c3cc(-c4c(F)cccc4C#N)nc4c3C(=O)NC4)n2)C[C@H]1O` [I-153, 3-fluoro-2-(4-(3-((3R,4S)-3-hydroxy-4-methoxypyrrolidin-1-yl)-1H-pyrazol-1-yl)-5-oxo-6,7-dihydro-5H-pyrrolo[3,4-b]pyridin-2-yl)benzonitrile], for which the pEC50 is 7.00 to 7.52 in experiment [1] (Homo sapiens, PBMC, 0.5 h) and under 5.70 in experiment [2] (Homo sapiens, PBMC, 20 min). Also, the pKi on TYK2 is 8.00 to 10.00.

`N#Cc1cccc(F)c1-c1cc(-n2ccc(N3CCC4(C3)OCC(O)CO4)n2)c2c(n1)CNC2=O` (stereo not shown) [I-192, 3-fluoro-2-(4-(3-(8-hydroxy-6,10-dioxa-2-azaspiro[4.5]decan-2-yl)-1H-pyrazol-1-yl)-5-oxo-6,7-dihydro-5H-pyrrolo[3,4-b]pyridin-2-yl)benzonitrile] showed a pEC50 in experiment [2] (Homo sapiens, PBMC, 20 min) of under 5.70. The pKi at TYK2 and on JAK2 was 8.00 to 10.00 in each case.

For the compound `N#Cc1cccc(F)c1-c1cc(-c2cc3n(n2)CC(O)CN3)c2c(n1)CNC2=O` (stereo not shown) [I-235, 3-fluoro-2-(4-(6-hydroxy-4,5,6,7-tetrahydropyrazolo[1,5-a]pyrimidin-2-yl)-5-oxo-6,7-dihydro-5H-pyrrolo[3,4-b]pyridin-2-yl)benzonitrile], in experiment [2] (Homo sapiens, PBMC, 20 min), the pEC50 is under 5.70. For the same compound, the pKi at TYK2 and at JAK2 was 8.00 to 10.00 each time.

For the origin of these results see patent US10781204B2, “TYK2 inhibitors and uses thereof” (Nimbus Lakshmi, Inc., priority 2015, dated 2020).
